For one series, the system named is rat hippocampal slices. The series is described as follows: Oxygen and glucose deprivation (15 minutes OGD, 2 hours reoxygenation) in hippocampal slices, MTT cell viability. Type of series: cell-based. As for the experimental part: Male Spague Dawley strain rats (250-325 g) were used. After anaesthesia by means of an intraperitoneal injection of 60 mg/Kg sodium pentobarbital (Euta-Lender®), they were decapitated with a guillotine and the brain was extracted after a craniotomy. The brain was immediately submersed in a dissection solution, a cold (4° C.) modified Krebs-Henseleit solution at pH 7.4, the composition of which is: 120 mM NaCl, 2 mM KCl, 0.5 mM CaCl2, 26 mM NaHCO3, 10 mM MgSO4, 1.18 mM KH2PO4, 11 mM glucose and 200 mM sucrose, bubbled with 95% O2-5% CO2. The hippocampi were isolated, embedded in 2% low melting point agarose (Sigma-Aldrich), and cut into 350 μm transverse slices in a vibratome (Leica VT1000S).
After the cutting in the vibratome, the slices were transferred to a vial with sucrose-free dissection Krebs solution, bubbled with 95% O2-5% CO2 for 60 minutes (equilibrium period).
After the equilibrating period, the medium was removed and an oxygenated solution (normal Krebs solution (120 mM NaCl, 2 mM KCl, 2 mM CaCl2, 26 mM NaHCO3, 1.19 mM MgSO4, 1.18 mM KH2PO4 and 11 mM glucose), bubbled with 5% CO2 and 95% O2 for 30 minutes (preincubation period), was introduced. The baseline slices were maintained in this oxygenated solution throughout the entire experiment. To induce OGD, the oxygenated solution was replaced with another one which lacked glucose and was bubbled with a mixture of gases of 5% CO2 and 95% N2 (anoxic solution). The slices were in a bath at 37° C. After inducing OGD, the anoxic medium was replaced with another one which contained the oxygenated solution (reoxygenation period).
To evaluate the effect of the compounds, they were incubated for the 30 minutes of the preincubation and throughout the OGD and during the reoxygenation. Two OGD-reoxygenation protocols were used: (i) 1 hour of OGD and 2 hours of reoxygenation and (ii) 15 minutes of OGD followed by 2 hours of reoxygenation.
When the OGD-reoxygenation protocol (ii): 15 minutes of OGD followed by 2 hours of reoxygenation was used, the slices were incubated with increasing concentrations of compound Ic (0.3 and 1 μM) or with increasing concentrations of compound Ib (1 and 3 μM). In the same study these two compounds of the invention were compared with N-acetylcysteine (NAC) at 10 mM. The baseline (slices in the absence of compound Ic or Ib and of OGD) and the control (slices in the absence of compound Ic or Ib and with OGD) were also included.
For the protocol of 15 minutes of OGD followed by 2 hours of reoxygenation, the cell viability was evaluated by means of the tetrazolium salt MTT, which is internalized in those cells which are viable and are therefore capable of reducing the tetrazolium to formazan which is an insoluble and coloured product which is deposited in the […]. To that end, after the experiment had ended, the hippocampal slices were incubated with MTT at a final concentration of 0.5 mg/mL in a Krebs-HEPES solution (in mM: NaCl, 144; KCl, 5.9; MgCl2, 1.2; CaCl2, 2; HEPES, 10; glucose, 11; at pH 7.3) at 37° C. After 3 hours, the medium was removed and the formazan precipitated in the solution was dissolved in dimethylsulfoxide. Then, the absorbance was measured in a plate reader (Labsystems iEMS Reader MF), at 500 nm. The data were represented taking the result of the baseline slices, i.e., those not subjected to OGD, as 100% viability.

In series [1] the test system is SH-SY5Y human neuroblastoma cell line. As to the kind of experiment: Cell toxicity study, LDH release, SH-SY5Y cells incubated 48 hours. Type of series: cell-based. The conditions noted are these: 100 μM, 48 hours incubation. On the procedure: The cell toxicity studies were performed on the SH-SY5Y human neuroblastoma cell line, incubating said cells for 48 hours with the compound under study. The cell viability was assessed by quantifying the release of lactate dehydrogenase (LDH), which is a cytoplasmic enzyme which is released into the extracellular medium when the integrity of the cytoplasmic membrane is lost.
On the technique in general: LDH leaks from cells whose membrane has failed.

The subject of series [2] is SH-SY5Y human neuroblastoma cells. The series is described as follows: Neuroprotection against cell death induced by rotenone plus oligomycin-A (oxidative stress), LDH release. Type of series: cell-based. On the procedure:
An oxidative stress model consists of blocking mitochondrial respiratory chain complexes I and V by means of the combination of rotenone plus oligomycin-A, respectively. As a result of the interruption of the mitochondrial respiratory chain, the cell is unable to continue producing ATP, and the free radicals are generated exceeding the capacity of the cell to neutralize them, and as a result, cell death occurs.
SH-SY5Y human neuroblastoma cells were cultured in a monolayer in 75 cm^2 flasks with a vented stopper. The culture medium used was Dulbecco's Modified Eagle's Medium (DMEM) with a high glucose content ([…]) and supplemented with 10% foetal bovine serum, 2 mM L-Glutamine, 50 IU/mL penicillin and 50 μg/mL streptomycin.
The cell cultures were maintained in an incubator at 37° C. in a humid environment, with 5% CO2 and 95% air. The culture medium was changed twice a week, performing 1:4 passages when the cells reached 70-80% confluence. To perform the passages, the cells were detached by means of their treatment with trypsin-EDTA.
For the cell viability assays, the cells were seeded in sterile 48-well plates at a density of 80,000 cells/well. The experiments were performed 24-48 hours after their seeding.
To evaluate the neuroprotective effect of the compounds, the SH-SY5Y cells were preincubated for 24 hours with the compound under study, and subsequently incubated for 24 hours with the compound under study in the presence of the toxic substances (a combination of 10 μM rotenone and 1 μM oligomycin-A); at the end of this period the cell viability was evaluated by quantifying the release of the LDH enzyme.
The assessment of this enzyme was performed by means of a commercial kit (Cytotoxicity detection kit-LDH; Roche) following the instructions of the company. The samples were colorimetrically analyzed in a plate reader (Labsystems iEMS Reader MF), using the suitable filter at 490-600 nm and obtaining the absorbance values.
The % of cell death was defined as the % of LDH released into the extracellular medium with respect to the total (sum of intra- and extracellular LDH).
Compounds Ic and Ib were studied at four concentrations (0.001, 0.003, 0.01 and 0.03 μM), chondroitin sulphate (supplied by Bioibérica, S.A.) was assayed at two concentrations (10 and 60 μM) and trolox (Sigma Aldrich) was assayed at two concentrations (30 and 300 μM). The experiment also included the baseline (SH-SY5Y cells in the absence of compound and of toxic stimulus) and the control (SH-SY5Y cells cultured in the absence of compound and in the presence of the toxic stimulus rotenone plus oligomycin).

The test system of series [3] is mice (photothrombotic stroke model). As to the kind of experiment: Experimental photothrombotic stroke model, cortical infarction volume. Type of series: in vivo, mouse. The note with it: 15 mg/kg i.p. From the text:
Neuronal death occurs during brain ischemia or stroke; therefore a medicament with a neuroprotective profile can have a therapeutic potential in patients who have suffered from a cerebral infarction or stroke. To explore if the compounds of formula (I) can offer neuroprotection in vivo, the experimental photothrombotic stroke model was used. In the photothrombosis model a focal cerebral infarction is induced in the area of the cortex illuminated by means of a cold light source in mice previously treated with the Rose Bengal stain; this stain is photosensitive and produces free radicals when it is stimulated with light, causing lesions in the surrounding vascular endothelium, which causes platelet aggregation and the formation of thrombi in the microvessels of the cerebral cortex (Non-invasive induction of focal cerebral ischemia in mice by photothrombosis of cortical microvessels: characterization of inflammatory responses, M. Schroeter et al., J Neurosci Methods. 117(1), 43-49. (2002); Melatonin reduces infarction volume in a photothrombotic stroke model in the wild-type but not cyclooxygenase-1-gene knockout mice, L Y. Zhou et al., J Pineal Res. 41(2), 150-156. (2006)).
Adult male Swiss breed mice from Harlan laboratories (Barcelona), with a weight of about 30 g, were used. Once anaesthetised with isoflurane, the mice were placed in a stereotaxic frame, maintaining their rectal temperature at 37±0.5° C. during the entire procedure. Subsequently, the cranium was exposed by means of a dorsomedial incision in the skin and the periosteum was removed. By means of the use of a micromanipulator, a fibre-optic cable was placed to emit a beam of light of 1.9 mm in diameter and 3000° K, connected to a cold light source (Zeiss KL 1500), in 2.0 mm posterior and 3.0 mm lateral to Bregma on the right side. According to the mouse brain atlas (Franklin and Paxinos, 1986), the sensitive-motor cortex, the putamen caudate and the hippocampus are right below this stereotaxic position. Then, the mice were injected with 1 mg of the Rose Bengal photosensitive probe and the brain was illuminated through the intact cranium for 30 minutes. Finally, the skin was sutured and the animals were left in a cage until their recovery under observation.
The animals were sacrificed by decapitation 72 hours after the ischemia. […]
To quantify the cortical cerebral infarction volume, the sections stained with TTC were scanned on both their rostral and caudal part and by means of the image analysis programme ImageJ 1.41 (National Institutes of Health, Bethesda, Md., USA) the area of the ipsi-, contralateral cortex and the cerebral infarction of each of the sections scanned, both in the caudal and rostral part, was quantified. Subsequently, the cerebral infarction volume was calculated. […]

Results on 4 molecules are retold here after US8785416B2, “Sulphated disaccharides for the treatment of neurodegenerative and/or neurovascular diseases” (Bioiberica, S.A., priority 2009, dated 2014).

Usually viability stands for a read-out of living cells in per cent, often relative to untreated cells. In the case of `CC(=O)N[C@@H](CS)C(=O)O` [N-acetylcysteine, reference compound], the viability at 10000 µM in the series on rat hippocampal slices (Rattus norvegicus, 10 mM, 15 minutes OGD, 2 hours reoxygenation, baseline 100%, control 67%, read-out: maximum statistically significant protection (cell viability, MTT)) was found to be 83%.

On to `CO[C@H]1OC(COS(=O)(=O)[O-])[C@@H](O)[C@H](O[C@@H]2OC(C(=O)[O-])[C@@H](O)[C@H](O)C2O)C1NC(C)=O.[Na+].[Na+]` (stereo partly drawn) [compound Ib], for which, in the series with rat hippocampal slices (Ic 0.3 and 1 μM, Ib 1 and 3 μM vs N-acetylcysteine 10 mM), the “efficacy in comparison with N-acetylcysteine” value is given as “higher efficacy”. The viability at 3 µM in the series on rat hippocampal slices (Rattus norvegicus, 3 μM, 15 minutes OGD, 2 hours reoxygenation, baseline 100%, control 67%, read-out: maximum statistically significant protection (cell viability, MTT)) came to 85%. Moreover, the “cell toxicity (release of LDH)” value in series [1] is “did not show toxicity”. Also, the “maximum statistically significant protection against cell death (% of released LDH) induced by rotenone and oligomycin” value in series [2] (0.03 μM, 24 h preincubation + 24 h with 10 μM rotenone and 1 μM oligomycin-A) is given as 40%. The “protective effect compared with chondroitin sulphate and trolox” value in series [2] (Ic, Ib at 0.001-0.03 μM vs chondroitin sulphate 10 and 60 μM, trolox 30 and 300 μM) was “more effective than chondroitin sulphate and than trolox”.

Regarding `COc1ccc2[nH]cc(CCNC(C)=O)c2c1` [melatonin, reference compound], the cortical infarction volume in series [3] (72 hours after ischemia, saline 6.1±2.18%, mean and standard deviation) came to 4.3±1.63%. The “protection (reduction of cortical infarction volume)” value in series [3] (p<0.05 vs saline) was 29%.

`Cc1c(C)c2c(c(C)c1O)CCC(C)(C(=O)O)O2` (stereo not drawn) [trolox, reference compound]: the “effect on cell death induced by rotenone and oligomycin” value in series [2] (30 and 300 μM) is on record as “reduced cell death”.
